Test results from US7041785B1, “B1-bradykinin receptor antagonists and use thereof” (Université de Sherbrooke, priority 1996, dated 2006).
Non-standard residues stand in square brackets, D forms with d. Residues, ends and D or L forms follow the SMILES beside them. d2Nal = N[C@H](Cc1ccc2ccccc2c1)C(=O)O; dTic = O=C(O)[C@H]1Cc2ccccc2CN1; NMeA = CN[C@@H](C)C(=O)O

How the values were obtained:
B1 receptor = biological target: T1, B1 receptor (Oryctolagus cuniculus, UniProt P48748); test: cell-based; conditions: for Kb: Rb.A. pA2, apparent affinity as antagonist vs desArg9BK; for Rb.A. α^E: residual agonistic activity at 10 μg/mL in comparison with desArg9BK
T1 sequence (P48748 1-352): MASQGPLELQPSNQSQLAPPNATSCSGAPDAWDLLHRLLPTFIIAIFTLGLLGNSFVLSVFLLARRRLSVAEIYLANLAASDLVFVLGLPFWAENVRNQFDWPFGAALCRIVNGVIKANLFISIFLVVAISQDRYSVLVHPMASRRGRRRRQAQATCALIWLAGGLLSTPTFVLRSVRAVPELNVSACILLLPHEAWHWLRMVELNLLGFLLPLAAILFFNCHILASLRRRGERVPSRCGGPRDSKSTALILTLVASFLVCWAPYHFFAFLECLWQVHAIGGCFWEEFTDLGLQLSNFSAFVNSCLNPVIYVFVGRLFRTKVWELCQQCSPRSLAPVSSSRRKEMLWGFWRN
Excerpt: (§1) Tissues were taken from New Zealand white rabbits (1.5–2.5 kg) and Dunken Hartley guinea pigs (250–350 g) of either sex, killed by stunning and exsanguination. Umbilical cords were taken from healthy women 22–40 years old after spontaneous delivery at term. The rabbit jugular vein (RbJV), the guinea pig ileum (GPI), two preparations containing B2 receptors, the rabbit aorta (RbA) (B1 receptor) and the human umbilical vein (HUV), a mixed preparation containing both B1 and B2 receptors^10, were used. Helical strips of RbJV treated with 1 μmol/L of captopril to avoid peptide degradation by the angiotensin-converting enzyme (ACE), alias kininase II were prepared according to Gaudreau et al.^11 Helical strips of RbA devoid of endothelium were prepared according to Furchgott and Bhadrakom^12. Longitudinal segments of GPI were prepared with the procedure described by Rang^13. Helical strips of HUV were prepared according to Gobeil et al.^10. The tissues were suspended in 10-ml organ baths containing warm (37EC), oxygenated (95% O2–5% CO2) Krebs solution of the following composition in mmol/L; NaCl: 118.1; KCl: 4.7; CaCl26H2O: 2.5; KH2PO4: 1.2; MgSO47H2O: 1.18; NaHCO3: 25.0 and D-Glucose: 5.5. The RbA and the HUV were stretched with an initial tension of 2 g, whereas the RbJV and the GPI were loaded with 0.5 g. Changes of tension produced by the various agents were measured with Grass isometric transducers (model FT 03C, Grass Instrument Co., Quincy, Mass.). […] Before testing the drugs, the tissues were allowed to equilibrate for 60–120 min during which time the tissues were repeatedly washed and the tension readjusted every 15 min.
(§2) At the beginning of each experiment, a submaximal dose of bradykinin (BK) (9 nmol/L), was applied repeatedly on the RbJV, the GPI or the HUV to ensure that tissues responded with stable contractions. […] A similar protocol was used for the HUV.
(§3) Repeated applications of a singl and double concentration of BK (on RbJV, GPI and HUV) and of desArg^9BK (RbA and HUV) were made in the absence and in presence of the various peptides to evaluate their apparent affinities as antagonists, in terms of pA2 (-log10 of the molar concentration of antagonist that reduces the effect of a double concentration of agonist to that of a single one)^14. The antagonists were applied 10 min before measuring the myotropic effects of either BK (the B2 receptor agonist) or desArg^9BK (the B1 receptor agonist). […] All kinin antagonists were initially applied to tissues at concentration of 10 μg/mL to measure their potential agonistic activities (α^E) in comparison with BK (in the B2 receptor preparations) or desArg^9BK (in the B1 receptor preparations).

B2 receptor [1] = biological target: T2, B2 receptor (Cavia porcellus, UniProt O70526); test: cell-based; conditions: for G.P.I. pA2: vs BK, Inactive = no detectable antagonistic effect at ≦ 10 μg/ml, F.ag. full agonist, P.ag. partial agonist; for G.P.I. α^E: residual agonistic activity at 10 μg/mL in comparison with BK
T2 sequence (O70526 1-372): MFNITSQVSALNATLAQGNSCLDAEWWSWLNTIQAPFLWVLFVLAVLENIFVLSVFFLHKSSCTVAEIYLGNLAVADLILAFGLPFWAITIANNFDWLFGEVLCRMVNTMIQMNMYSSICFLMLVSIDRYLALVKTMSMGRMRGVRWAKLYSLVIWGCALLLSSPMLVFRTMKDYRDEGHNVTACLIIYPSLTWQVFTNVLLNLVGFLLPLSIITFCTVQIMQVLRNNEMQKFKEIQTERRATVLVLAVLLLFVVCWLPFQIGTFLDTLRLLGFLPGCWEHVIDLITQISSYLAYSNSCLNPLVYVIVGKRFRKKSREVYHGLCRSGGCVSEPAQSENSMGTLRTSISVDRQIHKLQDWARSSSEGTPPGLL
Excerpt: as §1, §2, §3

[2] = system: T3, angiotensin-converting enzyme (ACE); test: Metabolic degradation by purified angiotensin-converting enzyme, HPLC analysis; assay type: in vitro ADME, rabbit; conditions: rabbit, isolated enzyme ace, pH 7.5
T3 construct: purified angiotensin-converting enzyme (ACE) from rabbit lungs; purchased Sigma, St-Louis, Mo; host or cells: purified from rabbit lungs
Method: The metabolic stability of various kinin-related peptides was evaluated by incubating the peptide in the presence of purified angiotensin-converting enzyme (ACE) from rabbit lungs (purchased from Sigma, St-Louis, Mo.) dissolved in phosphate buffered saline (PBS) (50 mmol/L, pH 7.5 containing 300 mmoL/L NaCl); the final concentration of enzyme was 45 μg/mL. The experimental protocol for the measurement of ACE activity has been described elsewhere^15,16. Briefly, 200 μmol/L of peptides (40 μL) were placed in a PBS buffer and incubated for 5 min at 37EC before adding 8.5 μL of ACE (total volume of the reaction medium; 190 μL). Samples were withdrawn at 30 min intervals, immersed in boiling water for 5 min, then cooled on ice and centrifuged (5 min) before proceeding to analysis of peptides by high pressure liquid chromatography (HPLC). Results of ACE metabolism are expressed in percent of kinin degradation following the incubation (30 min) of kinin substrates with the enzyme.
Pure peptides and metabolic products were analysed by reverse-phas HPLC on a C18 μBondapak column (4.6 mm×25 cm) (Waters) of 10-μm particle size. The peptides and their fragments were eluted at the rate of 2.0 mL/min. with a linear gradient ranging from 5 to 65% of acetonitrile/TFA 0.05%/water over 20 min. at room temperature. The elution positions of these peptides were determined by following the absorbance at 214 nm. For each assay, 50 μL of the reaction medium (treated or not with ACE) were extracted and injected into the column. Concentrations of the peaks products, different from the peaks of the peptide substrate, were estimated using a computer software program (Baseline 810; Waters) that controlled also all the chromatography operations. Isolated metabolites and substrates were collected and identified by Electrospray mass spectrometry (positive mode).

B2 receptor [3] = biological target: T4, B2 receptor (Oryctolagus cuniculus, UniProt Q28642); conditions: vs BK; captopril 1 μmol/L; Inactive = no detectable antagonistic effect at ≦ 10 μg/ml
T4 sequence (Q28642 1-367): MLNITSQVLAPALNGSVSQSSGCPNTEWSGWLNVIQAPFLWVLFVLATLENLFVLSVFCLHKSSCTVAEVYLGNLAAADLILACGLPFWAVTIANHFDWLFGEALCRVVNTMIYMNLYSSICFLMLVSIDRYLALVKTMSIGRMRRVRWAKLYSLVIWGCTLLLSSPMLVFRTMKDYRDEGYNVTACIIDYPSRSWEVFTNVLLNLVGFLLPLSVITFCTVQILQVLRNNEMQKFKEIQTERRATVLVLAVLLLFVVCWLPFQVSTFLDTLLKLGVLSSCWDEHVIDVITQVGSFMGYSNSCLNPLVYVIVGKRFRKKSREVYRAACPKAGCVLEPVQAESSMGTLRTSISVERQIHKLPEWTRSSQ

B2 receptor [4] = biological target: T4, B2 receptor; test: cell-based; conditions: residual agonistic activity at 10 μg/mL in comparison with BK
Excerpt: as §1, §2, §3

[5] = antagonist applied 10 min before, Inactive = no detectable antagonistic effect at ≦ 10 μg/ml

Molecule	Kb (B1 receptor; [5]) [nM]	G.P.I. pA2 (B2 receptor [1])	metabolised at 0.5 h, 42.1 μmol/L [2] [%]	Rb.J.V. pA2 (B2 receptor [3])	Kb (B2 receptor [1]) [nM]	Rb.A. α^E (B1 receptor)	G.P.I. α^E (B2 receptor [1])	Rb.J.V. α^E (B2 receptor [4])	EC50 (B2 receptor [1]) [nM]	metabolised at 0.5 h [2] [%]	Rb.A. pA2 (B1 receptor; apparent affinity as antagonist vs desArg9BK, antagonist applied 10 min before, Inactive = no detectable antagonistic effect at ≦ 10 μg/ml)
CC(C)C[C@H](NC(=O)[C@@H]1CCCN1C(=O)[C@H](CO)NC(=O)[C@H](Cc1ccccc1)NC(=O)CNC(=O)[C@@H]1C[C@@H](O)CN1C(=O)[C@@H]1CCCN1C(=O)[C@H](CCCNC(=N)N)NC(=O)[C@@H](N)CCCCN)C(=O)O [Compound 3, Lys(Hyp^3, Leu^8)desArg^9BK]	6.92	Inactive	40 ± 3	Inactive	–	–	–	–	–	–	–
CC(C)C[C@H](NC(=O)[C@@H]1CCCN1C(=O)[C@H](CO)NC(=O)[C@H](Cc1ccccc1)NC(=O)CNC(=O)[C@@H]1C[C@@H](O)CN1C(=O)[C@@H]1CCCN1C(=O)[C@H](CCCNC(=N)N)NC(=O)[C@H](N)CCCNC(=N)N)C(=O)O [Compound 4, D-Arg(Hyp^3, Leu^8)desArg^9BK]	339	–	83 ± 2	Inactive	> 9550	–	–	–	–	–	–
CC(=O)N[C@@H](CCCCN)C(=O)N[C@@H](CCCNC(=N)N)C(=O)N1CCC[C@H]1C(=O)N1C[C@H](O)C[C@H]1C(=O)NCC(=O)N[C@@H](Cc1ccccc1)C(=O)N[C@@H](CO)C(=O)N1CCC[C@H]1C(=O)N[C@@H](CC(C)C)C(=O)O [Compound 5, AcLys(Hyp^3, Leu^8)desArg^9BK]	178	–	66 ± 1	Inactive	> 9550	0	0.30	0.03	–	–	–
CC(=O)N[C@@H](CCCCN)C(=O)N[C@@H](CCCNC(=N)N)C(=O)N1CCC[C@H]1C(=O)N1CCC[C@H]1C(=O)NCC(=O)N[C@@H](Cc1ccccc1)C(=O)N[C@@H](CO)C(=O)N1Cc2ccccc2C[C@@H]1C(=O)N[C@@H](CC(C)C)C(=O)O [Compound 11, AcLys(D-Tic^7, Leu^8)desArg^9BK] (Ac-KRPPGFS[dTic]L-OH; C-terminus assumed)	6760	–	–	Inactive	–	0	–	0.37	1410	0	–
CC(=O)N[C@@H](CCCCN)C(=O)N[C@@H](CCCNC(=N)N)C(=O)N1CCC[C@H]1C(=O)N1CCC[C@H]1C(=O)NCC(=O)N[C@@H](Cc1ccccc1)C(=O)N(C)[C@@H](C)C(=O)N1CCC[C@H]1C(=O)N[C@@H](CC(C)C)C(=O)O [Compound 21, AcLys(N-MeAla^6, Leu^8)desArg^9BK, reference compound] (Ac-KRPPGF[NMeA]PL-OH; C-terminus assumed)	282	Inactive	0	Inactive	–	0.01	0.19	0	–	–	–
CC[C@H](C)[C@H](NC(=O)[C@@H](Cc1ccc2ccccc2c1)NC(=O)[C@H](C)N(C)C(=O)[C@H](Cc1ccccc1)NC(=O)CNC(=O)[C@@H]1CCCN1C(=O)[C@@H]1CCCN1C(=O)[C@H](CCCNC(=N)N)NC(=O)[C@H](CCCCN)NC(C)=O)C(=O)O [Compound 22, AcLys(N-MeAla^6, D-βNal^7, IIe^8)desArg^9BK] (Ac-KRPPGF[NMeA][d2Nal]I-OH; C-terminus assumed)	537	P.ag.	0	Inactive	–	0	–	0.03	–	–	–
D-Arg(Hyp^3, D-Hyp^7(trans propyl), Oic^8)desArg^9BK [Compound 33, reference compound]	–	–	–	6.99 ± 0.04	–	0	0	0	–	–	7.94 ± 0.06
